ChEMBL document CHEMBL4808219, “Exploration of Benzo[b]carbazole-6,11-diones as anticancer agents: Synthesis and studies of hTopoIIα inhibition and apoptotic effects” (Bioorg Med Chem Lett, 2021)
Calls of active or inactive are those of the source. The rule behind the calls is not given here.

Tests used:
[1] = tested on: HEK-293T; experiment: Cytotoxicity against human HEK293T cells assessed as reduction in cell viability incubated for 48 hrs by MTT assay; type: cell-based
[2] = biological target: DNA topoisomerase 2-alpha (Homo sapiens) (UniProt P11388); experiment: Inhibition of human topoisomerase 2alpha assessed as reduction in decatenation of kinetoplast DNA by agarose gel electrophoresis method
[3] = tested on: MCF7; experiment: Cytotoxicity against human MCF7 cells assessed as reduction in cell viability incubated for 48 hrs by MTT assay; type: functional, cell-based
[4] = tested on: MDA-MB-231; experiment: Cytotoxicity against human MDA-MB-231 cells assessed as reduction in cell viability incubated for 48 hrs by MTT assay; type: functional, cell-based
[5] = Cytotoxicity against human H357 cells assessed as reduction in cell viability incubated for 48 hrs by MTT assay; type: functional, cell-based
[6] = tested on: MDA-MB-231; experiment: Cytotoxicity against human MDA-MB-231 cells assessed as reduction in cell survival by clonogenic assay; type: functional, cell-based
[7] = tested on: MCF-10A; experiment: Cytotoxicity against human MCF-10A cells; type: cell-based
[8] = Homo sapiens, MCF7, 48 h, read-out: IC50
[9] = Homo sapiens, MDA-MB-231, 48 h, read-out: IC50
[10] = Homo sapiens, H357, 48 h, read-out: IC50

DNA topoisomerase 2-alpha (Homo sapiens), sequence (P11388 whole entry): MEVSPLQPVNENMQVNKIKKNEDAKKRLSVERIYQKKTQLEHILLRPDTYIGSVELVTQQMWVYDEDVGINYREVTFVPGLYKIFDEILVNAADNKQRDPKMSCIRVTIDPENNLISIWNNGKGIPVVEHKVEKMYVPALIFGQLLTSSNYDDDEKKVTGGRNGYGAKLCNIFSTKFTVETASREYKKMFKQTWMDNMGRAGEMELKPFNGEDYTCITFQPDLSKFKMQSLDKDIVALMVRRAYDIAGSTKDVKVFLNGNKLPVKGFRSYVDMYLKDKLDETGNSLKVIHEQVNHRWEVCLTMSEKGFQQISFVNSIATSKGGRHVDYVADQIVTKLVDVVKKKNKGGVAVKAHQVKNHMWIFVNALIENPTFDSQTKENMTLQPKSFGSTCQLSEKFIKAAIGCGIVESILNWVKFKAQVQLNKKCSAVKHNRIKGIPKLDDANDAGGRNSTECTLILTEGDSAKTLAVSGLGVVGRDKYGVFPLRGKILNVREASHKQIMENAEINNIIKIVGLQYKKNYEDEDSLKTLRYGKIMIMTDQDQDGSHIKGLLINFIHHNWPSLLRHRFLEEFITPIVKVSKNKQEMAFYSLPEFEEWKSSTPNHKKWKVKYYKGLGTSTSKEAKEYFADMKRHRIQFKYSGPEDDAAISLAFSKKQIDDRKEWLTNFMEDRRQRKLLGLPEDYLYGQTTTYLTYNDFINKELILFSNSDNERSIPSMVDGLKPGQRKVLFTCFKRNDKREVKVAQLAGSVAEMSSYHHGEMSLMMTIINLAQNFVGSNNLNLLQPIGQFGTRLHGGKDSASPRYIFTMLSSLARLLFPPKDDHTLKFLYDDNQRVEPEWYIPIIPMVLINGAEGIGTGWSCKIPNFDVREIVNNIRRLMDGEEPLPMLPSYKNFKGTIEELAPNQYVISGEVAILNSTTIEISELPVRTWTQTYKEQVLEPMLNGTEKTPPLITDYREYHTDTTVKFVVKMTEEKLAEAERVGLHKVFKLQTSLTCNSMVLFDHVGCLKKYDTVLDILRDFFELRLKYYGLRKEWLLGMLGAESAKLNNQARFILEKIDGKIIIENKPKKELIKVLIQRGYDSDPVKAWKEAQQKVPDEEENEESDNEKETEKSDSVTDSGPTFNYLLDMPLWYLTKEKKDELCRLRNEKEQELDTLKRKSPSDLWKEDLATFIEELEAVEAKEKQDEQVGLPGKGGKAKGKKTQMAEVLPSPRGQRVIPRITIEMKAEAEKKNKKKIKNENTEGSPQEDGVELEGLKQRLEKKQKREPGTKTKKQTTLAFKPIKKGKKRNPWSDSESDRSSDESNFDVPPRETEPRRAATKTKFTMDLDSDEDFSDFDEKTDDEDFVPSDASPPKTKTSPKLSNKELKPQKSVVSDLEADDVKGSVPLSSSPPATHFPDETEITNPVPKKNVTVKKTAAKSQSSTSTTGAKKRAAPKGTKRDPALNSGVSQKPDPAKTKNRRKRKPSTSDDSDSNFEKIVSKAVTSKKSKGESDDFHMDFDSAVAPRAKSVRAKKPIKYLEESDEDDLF

Structure (SMILES) | IC50 [1] [µM] | inhibition [2] | IC50 [3, 8] [µM] | IC50 [4, 9] [µM] | IC50 [5, 10] [µM] | IC50 ([3]; mcf7) | IC50 ([4]; mda-mb-231) | IC50 ([5]; h357) | IC50 [6] [µM] | IC50 [7] [µM]
COc1ccc(NC2=CC(=O)c3ccccc3C2=O)cc1OC | 6.3 | Active | 6.4 | 6.2 | 6.2 | – | – | – | – | –
CN1CCN(CCCNC2=CC(=O)c3ccccc3C2=O)CC1 | 10.9 | – | 10.4 | 10 | 10.9 | – | – | – | – | –
Cc1ccc(NC2=CC(=O)c3ccccc3C2=O)cc1C | 7.7 | – | 5.3 | 5.9 | 6.4 | – | – | – | – | –
Cc1ccc(NC2=CC(=O)c3ccccc3C2=O)cc1 | 5.6 | Active | 6.4 | 5.3 | 5.2 | – | – | – | – | –
O=C1C=C(Nc2ccc(F)cc2)C(=O)c2ccccc21 | 5.2 | – | 4.1 | 4.9 | 3.8 | – | – | – | – | –
O=C1C=C(Nc2ccccc2)C(=O)c2ccccc21 | 5.6 | – | 4.4 | 5.3 | 4.2 | – | – | – | – | –
O=C1C(Nc2ccccc2)=CC(=O)c2c(O)cccc21 | 4.2 | – | 3.8 | 3.7 | 4.9 | – | – | – | – | –
COc1cccc2c1C(=O)C=C(Nc1ccccc1)C2=O | 7.7 | – | 6 | 6.2 | 6.4 | – | – | – | – | –
COc1cc2[nH]c3c(c2c(OC)c1OC)C(=O)c1ccccc1C3=O | 10.5 | Active | 8.2 | 8.1 | 9.4 | – | – | – | – | –
COc1ccc2c3c([nH]c2c1)C(=O)c1ccccc1C3=O | 9.8 | – | 7 | 7.5 | 7.9 | – | – | – | – | –
Cn1c2c(c3ccccc31)C(=O)c1ccccc1C2=O | 8.4 | Active | 5.4 | 6.5 | 7.3 | – | – | – | – | –
CCC(C)c1ccc(NC2=CC(=O)c3ccccc3C2=O)cc1 (configuration not stated) | 5.2 | – | 4.2 | 4.2 | 4 | – | – | – | – | –
O=C1C=C(Nc2cnccn2)C(=O)c2ccccc21 | 9 | – | 7.2 | 7 | 8.1 | – | – | – | – | –
O=C1C=C(NCCCO)C(=O)c2ccccc21 | 10.3 | – | 9.6 | 9.8 | 9.9 | – | – | – | – | –
COc1cc2[nH]c3c(c2c(OC)c1OC)C(=O)c1c(OC)cccc1C3=O | – | – | – | – | – | Not Active | Not Active | Not Active | – | –
O=C1c2ccccc2C(=O)c2c1[nH]c1ccc(Cl)cc21 | 6.3 | Active | 4.5 | 4.4 | 4.6 | – | – | – | – | –
O=C1C=C(Nc2ccc(F)c(F)c2)C(=O)c2ccccc21 | 9.4 | – | 7.2 | 7 | 8.4 | – | – | – | – | –
O=C1c2ccccc2C(=O)c2c1[nH]c1cc(F)c(F)cc21 | – | – | – | – | – | Not Active | Not Active | Not Active | – | –
O=C1C=C(Nc2cccc(Cl)c2)C(=O)c2ccccc21 | 5.2 | – | 4.2 | 4.1 | 4 | – | – | – | – | –
COc1ccc2[nH]c3c(c2c1)C(=O)c1ccccc1C3=O | 10.5 | – | 8 | 8.7 | 9.6 | – | – | – | – | –

Structure (SMILES) | IC50 [1] [µM] | inhibition [2] | IC50 [3, 8] [µM] | IC50 [4, 9] [µM] | IC50 [5, 10] [µM] | IC50 ([3]; mcf7) | IC50 ([4]; mda-mb-231) | IC50 ([5]; h357) | IC50 [6] [µM] | IC50 [7] [µM]
Cc1ccc2[nH]c3c(c2c1)C(=O)c1ccccc1C3=O | 8 | Active | 5.2 | 4.9 | 6.1 | – | – | – | – | –
COc1cc2[nH]c3c(c2c(OC)c1OC)C(=O)c1c(O)cccc1C3=O | – | – | – | – | – | Not Active | Not Active | Not Active | – | –
O=C1C=C(NCCCN2CCOCC2)C(=O)c2ccccc21 | 7.2 | – | 6.2 | 6.4 | 6.9 | – | – | – | – | –
COc1cccc2c1C(=O)c1c([nH]c3ccccc13)C2=O | 10.4 | – | 9.8 | 8.9 | 10.5 | – | – | – | – | –
COc1cc([C@@H]2c3cc4c(cc3[C@@H](O[C@@H]3O[C@@H]5CO[C@@H](C)O[C@H]5[C@H](O)[C@H]3O)[C@H]3COC(=O)[C@H]23)OCO4)cc(OC)c1O [ETOPOSIDE] | 22 | – | 45 | 48 | 32 | – | – | – | 42 | > 120
CCC(C)c1ccc2[nH]c3c(c2c1)C(=O)c1ccccc1C3=O (configuration not stated) | 9 | Active | 6.3 | 5.4 | 7.1 | – | – | – | – | –
COc1cc(NC2=CC(=O)c3ccccc3C2=O)cc(OC)c1OC | 8.4 | – | 7 | 6.9 | 6.8 | – | – | – | – | –
O=C1c2ccccc2C(=O)c2c1[nH]c1ccccc21 [BENZOCARBAZOLEDIONE] | 5.8 | – | 4.5 | 5.2 | 5 | – | – | – | – | –
CN(C)CCCNC1=CC(=O)c2ccccc2C1=O | 8.1 | – | 6.3 | 6.4 | 7.3 | – | – | – | – | –
COc1cc2[nH]c3c(c2cc1OC)C(=O)c1ccccc1C3=O | 10.2 | – | 8.4 | 7.4 | 8.7 | – | – | – | – | –
O=C1C=C(Nc2nccs2)C(=O)c2ccccc21 | 7.6 | – | 6.4 | 6.3 | 7.2 | – | – | – | – | –
COc1cc(NC2=CC(=O)c3c(OC)cccc3C2=O)cc(OC)c1OC | – | – | – | – | – | Not Active | Not Active | Not Active | – | –
Cc1cc2[nH]c3c(c2cc1C)C(=O)c1ccccc1C3=O | 7 | – | 4.2 | 6.3 | 6.1 | – | – | – | – | –
O=C1C=C(Nc2ccc(Cl)cc2)C(=O)c2ccccc21 | 4.9 | – | 4.1 | 3.9 | 4.8 | – | – | – | – | –
COc1ccc(NC2=CC(=O)c3ccccc3C2=O)cc1 | 5.5 | – | 4.5 | 4.8 | 4.6 | – | – | – | – | –
COc1cc(NC2=CC(=O)c3c(O)cccc3C2=O)cc(OC)c1OC | – | – | – | – | – | Not Active | Not Active | Not Active | – | –
O=C1c2ccccc2C(=O)c2c1[nH]c1ccc(F)cc21 | 7.5 | Active | 4.7 | 4.8 | 5.6 | – | – | – | – | –
O=C1c2ccccc2C(=O)c2c1[nH]c1cc(Cl)ccc21 | 7.3 | Active | 4.4 | 5.5 | 6.5 | – | – | – | – | –
O=C1C=C(Nc2ccc3c(c2)OCO3)C(=O)c2ccccc21 | 10.2 | – | 9.6 | 9.4 | 10.4 | – | – | – | – | –
